Measurements reported in PMC4384654 (ChemMedChem, 2014).
Where “and” joins values, the source holds several entries; their conditions need not be identical. Equal entries are not always repeated. Where two headings read alike, the source gives them in different places.

Columns and labels:
[1] = target: T1, FAAH prepared from rat brain homogenates (Rattus norvegicus, UniProt P97612); assay: In vitro rat FAAH radiometric assay; format: biochemical; details: for IC50: read-out: r-FAAH IC50; for IC50 / % inhibition of FAAH activity at 100 μM: rat brain homogenate; for Increase in potency vs 34a: relative to 34a
T1 sequence (P97612 1-579): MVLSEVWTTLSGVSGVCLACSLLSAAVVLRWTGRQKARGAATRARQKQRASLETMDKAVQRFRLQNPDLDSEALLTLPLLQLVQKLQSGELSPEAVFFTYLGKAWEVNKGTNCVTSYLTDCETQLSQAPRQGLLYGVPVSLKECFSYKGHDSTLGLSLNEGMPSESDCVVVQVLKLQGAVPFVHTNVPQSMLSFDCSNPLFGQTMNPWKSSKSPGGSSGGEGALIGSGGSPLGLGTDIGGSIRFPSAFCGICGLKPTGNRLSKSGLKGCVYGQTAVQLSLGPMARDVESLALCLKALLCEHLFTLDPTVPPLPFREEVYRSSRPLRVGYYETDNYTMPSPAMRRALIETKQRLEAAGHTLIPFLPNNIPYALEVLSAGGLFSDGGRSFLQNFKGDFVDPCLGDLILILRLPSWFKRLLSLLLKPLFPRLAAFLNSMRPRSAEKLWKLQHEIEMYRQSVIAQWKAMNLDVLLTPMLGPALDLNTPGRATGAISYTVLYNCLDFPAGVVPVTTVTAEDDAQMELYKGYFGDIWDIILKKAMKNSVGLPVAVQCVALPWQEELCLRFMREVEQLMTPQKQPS

[2] = target: T2, human FAAH-1 (Homo sapiens, UniProt O00519); assay: In vitro human FAAH fluorescent assay; format: biochemical; details: h-FAAH-1 IC50 relative to r-FAAH IC50
T2 sequence (O00519 1-579): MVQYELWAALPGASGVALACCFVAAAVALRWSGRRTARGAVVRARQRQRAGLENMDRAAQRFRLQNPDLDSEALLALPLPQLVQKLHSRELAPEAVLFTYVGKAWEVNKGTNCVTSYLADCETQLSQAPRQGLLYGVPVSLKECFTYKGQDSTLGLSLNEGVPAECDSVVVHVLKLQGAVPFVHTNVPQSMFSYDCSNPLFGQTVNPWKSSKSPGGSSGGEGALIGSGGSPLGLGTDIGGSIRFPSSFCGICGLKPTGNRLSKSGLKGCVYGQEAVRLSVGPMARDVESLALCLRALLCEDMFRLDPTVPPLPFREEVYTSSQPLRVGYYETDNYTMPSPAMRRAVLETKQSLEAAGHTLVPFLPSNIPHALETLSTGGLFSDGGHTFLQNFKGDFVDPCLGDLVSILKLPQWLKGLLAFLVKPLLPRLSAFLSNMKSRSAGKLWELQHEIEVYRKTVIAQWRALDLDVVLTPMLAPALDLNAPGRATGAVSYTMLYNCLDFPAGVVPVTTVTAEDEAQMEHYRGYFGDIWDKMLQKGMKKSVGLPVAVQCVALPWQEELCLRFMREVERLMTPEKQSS

IC50 ([1]; mean ± SEM (n=3))	Compound	other results
26 nM and 26.2 nM	O=C(NC1CCCCC1)OCc1cn(Cc2ccccc2)nn1 [Compound 18, (1-benzyltriazol-4-yl)methyl N-cyclohexylcarbamate]	Less potent than 1a (URB524) ([1]; r-FAAH, relative to 1a): 4.6 fold; Increase in potency vs compound 17 ([1]; r-FAAH, relative to 17): ca. 15 fold
2000 ± 636 nM	O=C(NC1CCCCC1)OCc1cn(Cc2ccc3ccccc3c2)nn1 [Compound 21, [1-(2-naphthylmethyl)triazol-4-yl]methyl N-cyclohexylcarbamate]	IC50 [1]: 2000 nM
19.5 ± 4.3 nM	N#Cc1ccccc1Cn1cc(COC(=O)NC2CCCCC2)nn1 [Compound 22a, [1-[(2-cyanophenyl)methyl]triazol-4-yl]methyl N-cyclohexylcarbamate]	
21.5 ± 7.9 nM	N#Cc1cccc(Cn2cc(COC(=O)NC3CCCCC3)nn2)c1 [Compound 22b, [1-[(3-cyanophenyl)methyl]triazol-4-yl]methyl N-cyclohexylcarbamate]	
2280 ± 585 nM	N#Cc1ccc(Cn2cc(COC(=O)NC3CCCCC3)nn2)cc1 [Compound 22c, [1-[(4-cyanophenyl)methyl]triazol-4-yl]methyl N-cyclohexylcarbamate]	
9.9 ± 1.9 nM	O=C(NC1CCCCC1)OCc1cn(Cc2ccccc2F)nn1 [Compound 23a, [1-[(2-fluorophenyl)methyl]triazol-4-yl]methyl N-cyclohexylcarbamate]	Loss of potency on h-FAAH-1 vs r-FAAH [2]: 62 fold
12.1 ± 0.8 nM	O=C(NC1CCCCC1)OCc1cn(Cc2cccc(F)c2)nn1 [Compound 23b, [1-[(3-fluorophenyl)methyl]triazol-4-yl]methyl N-cyclohexylcarbamate]	
95.5 ± 22.2 nM	O=C(NC1CCCCC1)OCc1cn(Cc2ccc(F)cc2)nn1 [Compound 23c, [1-[(4-fluorophenyl)methyl]triazol-4-yl]methyl N-cyclohexylcarbamate]	
6.2 ± 1.3 nM	O=C(NC1CCCCC1)OCc1cn(Cc2ccccc2Cl)nn1 [Compound 24a, [1-[(2-chlorophenyl)methyl]triazol-4-yl]methyl N-cyclohexylcarbamate]	Loss of potency on h-FAAH-1 vs r-FAAH [2]: 172 fold
13.2 ± 2.8 nM	O=C(NC1CCCCC1)OCc1cn(Cc2cccc(Cl)c2)nn1 [Compound 24b, [1-[(3-chlorophenyl)methyl]triazol-4-yl]methyl N-cyclohexylcarbamate]	
215 ± 31 nM	O=C(NC1CCCCC1)OCc1cn(Cc2ccc(Cl)cc2)nn1 [Compound 24c, [1-[(4-chlorophenyl)methyl]triazol-4-yl]methyl N-cyclohexylcarbamate]	
21.5 ± 1.2 nM	Cc1ccccc1Cn1cc(COC(=O)NC2CCCCC2)nn1 [Compound 25a, [1-(o-tolylmethyl)triazol-4-yl]methyl N-cyclohexylcarbamate]	
24.5 ± 6.2 nM	Cc1cccc(Cn2cc(COC(=O)NC3CCCCC3)nn2)c1 [Compound 25b, [1-(m-tolylmethyl)triazol-4-yl]methyl N-cyclohexylcarbamate]	
500 ± 44 nM	Cc1ccc(Cn2cc(COC(=O)NC3CCCCC3)nn2)cc1 [Compound 25c, [1-(p-tolylmethyl)triazol-4-yl]methyl N-cyclohexylcarbamate]	
1.4 ± 0.2 nM	COc1ccccc1Cn1cc(COC(=O)NC2CCCCC2)nn1 [Compound 26a, [1-[(2-methoxyphenyl)methyl]triazol-4-yl]methyl N-cyclohexylcarbamate]	Loss of potency on h-FAAH-1 vs r-FAAH [2]: 240 fold
11.8 ± 3.7 nM	COc1cccc(Cn2cc(COC(=O)NC3CCCCC3)nn2)c1 [Compound 26b, [1-[(3-methoxyphenyl)methyl]triazol-4-yl]methyl N-cyclohexylcarbamate]	
627 ± 173 nM	COc1ccc(Cn2cc(COC(=O)NC3CCCCC3)nn2)cc1 [Compound 26c, [1-[(4-methoxyphenyl)methyl]triazol-4-yl]methyl N-cyclohexylcarbamate]	

More lines, now with the values behind:

Compound	IC50 ([1]; mean ± SEM (n=3))	other results
O=C(NC1CCCCC1)OCc1cccc(-c2ccccc2)c1 [Compound 4, (3-phenylphenyl)methyl N-cyclohexylcarbamate]		inhibition at 100 µM ([1]; read-out: % inhibition of FAAH activity at 100 μM): 65%
O=C(NC1CCCCC1)OCc1cn(-c2ccccc2)nn1 [Compound 17, (1-phenyltriazol-4-yl)methyl N-cyclohexylcarbamate]	381 nM	
O=C(NC1CCCCC1)OCc1cn(CCc2ccccc2)nn1 [Compound 19, (1-phenethyltriazol-4-yl)methyl N-cyclohexylcarbamate]	833 ± 129 nM	
O=C(NC1CCCCC1)OCc1cn(C(c2ccccc2)c2ccccc2)nn1 [Compound 20, (1-benzhydryltriazol-4-yl)methyl N-cyclohexylcarbamate]		% inhibition of FAAH activity at 100 μM [1]: 73% @ 100 μM
O=C(NC1CCCCC1)OCc1cn(Cc2c(F)cccc2F)nn1 [Compound 28, [1-[(2,6-difluorophenyl)methyl]triazol-4-yl]methyl N-cyclohexylcarbamate]	11.9 ± 1 nM	
O=C(NC1CCCCC1)OCc1cn(Cc2cc(F)cc(F)c2)nn1 [Compound 29, [1-[(3,5-difluorophenyl)methyl]triazol-4-yl]methyl N-cyclohexylcarbamate]	10.4 ± 2.6 nM	
COc1cccc(Cn2cc(COC(=O)NC3CCCCC3)nn2)c1F [Compound 30, [1-[(2-fluoro-3-methoxy-phenyl)methyl]triazol-4-yl]methyl N-cyclohexylcarbamate]	44.6 ± 10.3 nM	
O=C(NC1CCCCC1)OCCc1cn(-c2ccccc2)nn1 [Compound 32, 2-(1-phenyltriazol-4-yl)ethyl N-cyclohexylcarbamate]	1280 ± 84 nM	Decrease in potency vs compound 17 ([1]; r-FAAH, relative to 17): ca. 3 fold
O=C(NC1CCCCC1)OCCc1cn(Cc2ccccc2)nn1 [Compound 33, 2-(1-benzyltriazol-4-yl)ethyl N-cyclohexylcarbamate]	2540 ± 106 nM	
COc1ccccc1Cn1cc(CNC(=O)OCc2cn(Cc3ccccc3OC)nn2)nn1 [Compound 34a, [1-[(2-methoxyphenyl)methyl]triazol-4-yl]methyl N-[[1-[(2-methoxyphenyl)methyl]triazol-4-yl]methyl]carbamate]	154 ± 14 nM	
COc1cccc(Cn2cc(CNC(=O)OCc3cn(Cc4ccccc4OC)nn3)nn2)c1 [Compound 37, [1-[(2-methoxyphenyl)methyl]triazol-4-yl]methyl N-[[1-[(3-methoxyphenyl)methyl]triazol-4-yl]methyl]carbamate]	3.2 ± 1.2 nM	Increase in potency vs 34a ([1]; r-FAAH): 48 fold; Loss of potency on h-FAAH-1 vs r-FAAH [2]: 4 to 10 fold
COc1ccc(Cn2cc(CNC(=O)OCc3cn(Cc4ccccc4OC)nn3)nn2)cc1 [Compound 38, [1-[(2-methoxyphenyl)methyl]triazol-4-yl]methyl N-[[1-[(4-methoxyphenyl)methyl]triazol-4-yl]methyl]carbamate]	7.6 ± 0.6 nM	Loss of potency on h-FAAH-1 vs r-FAAH [2]: 4 to 10 fold
COc1cccc(Cn2cc(COC(=O)NCc3cn(Cc4ccccc4OC)nn3)nn2)c1 [Compound 39, [1-[(3-methoxyphenyl)methyl]triazol-4-yl]methyl N-[[1-[(2-methoxyphenyl)methyl]triazol-4-yl]methyl]carbamate]	9.8 ± 0.4 nM	Increase in potency vs 34a ([1]; r-FAAH): ca. 15 fold; Loss of potency on h-FAAH-1 vs r-FAAH [2]: 4 to 10 fold
O=C(NC1CCCCC1)OCc1ncn(-c2ccccc2)n1 [Compound 43]		% inhibition of FAAH activity at 100 μM [1]: 70% @ 100 μM
O=C(NC1CCCCC1)OCc1ncn(Cc2ccccc2)n1 [Compound 46]	51500 ± 1120 nM	
